The values that follow come from patent publication US11331299B2, “Medicinal use of serrulatane diterpenes” (The University of Sydney, priority 2016, dated 2022).

In data set [1] the target is HDAC1 (h) (Homo sapiens, UniProt Q13547). The data set can be described thus: Epigenetic enzyme assay, Histone deacetylase (HDACs). It is filed as biochemical. The note with it: read-out: % Inhibition of Control Values.
Data set [2] has as its target T1, HDAC7 (h) (Homo sapiens, UniProt Q8WUI4).
T1 sequence (Q8WUI4 1-952): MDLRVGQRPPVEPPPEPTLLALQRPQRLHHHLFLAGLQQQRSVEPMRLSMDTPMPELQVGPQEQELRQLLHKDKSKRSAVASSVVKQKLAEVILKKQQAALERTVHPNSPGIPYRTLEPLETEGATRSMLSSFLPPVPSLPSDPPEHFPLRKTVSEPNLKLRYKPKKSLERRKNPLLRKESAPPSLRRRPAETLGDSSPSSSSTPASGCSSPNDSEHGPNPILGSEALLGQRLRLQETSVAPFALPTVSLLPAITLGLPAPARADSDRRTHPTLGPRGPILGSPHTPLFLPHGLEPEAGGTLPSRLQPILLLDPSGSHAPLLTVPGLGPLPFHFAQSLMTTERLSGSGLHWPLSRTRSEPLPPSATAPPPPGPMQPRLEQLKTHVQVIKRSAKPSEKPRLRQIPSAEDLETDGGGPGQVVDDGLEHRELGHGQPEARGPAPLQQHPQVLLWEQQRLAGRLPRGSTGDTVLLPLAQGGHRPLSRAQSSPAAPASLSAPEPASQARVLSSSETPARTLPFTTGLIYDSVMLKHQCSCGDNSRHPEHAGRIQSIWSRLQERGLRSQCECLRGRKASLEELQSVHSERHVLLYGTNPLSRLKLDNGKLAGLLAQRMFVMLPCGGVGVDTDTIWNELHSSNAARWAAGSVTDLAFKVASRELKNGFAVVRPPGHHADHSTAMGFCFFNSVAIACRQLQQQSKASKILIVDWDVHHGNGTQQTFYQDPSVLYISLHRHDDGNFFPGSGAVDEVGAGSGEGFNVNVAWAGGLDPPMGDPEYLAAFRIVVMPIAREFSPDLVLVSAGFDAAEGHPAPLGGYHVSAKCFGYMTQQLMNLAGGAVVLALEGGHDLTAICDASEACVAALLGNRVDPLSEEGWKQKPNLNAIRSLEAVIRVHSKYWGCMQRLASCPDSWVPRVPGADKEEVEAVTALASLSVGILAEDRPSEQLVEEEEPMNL
Described as above. The note with it: read-out: % Inhibition of Control Values. It is filed as biochemical.

Data set [3] concerns the target MLL complex (h) (Homo sapiens, UniProt Q03164). The data set can be described thus: Epigenetic enzyme assay, Methyltransferases (MTs). The data set is classed as biochemical. The note with it: for inhibition at 10 µM: read-out: % Inhibition of Control Values.
Data set [4] deals with PKBgamma/AKT3(h) (substrate histone H3 full length) (Homo sapiens, UniProt Q9Y243). The experiment in a line: Epigenetic enzyme assay, Kinases. The data set is classed as biochemical. The settings on record: read-out: % Inhibition of Control Values.
Data set [5] concerns NF-κB. The data set can be described thus: Transcription Response, NF-κB. It is filed as cell-based, Human. On the procedure:
The in vitro pharmacological studies were conducted by Eurofins PanLab (Taiwan) using the parameters shown in Table 13 with respect to appropriate literature references.

The target in data set [6] is T2, CYP1A (Homo sapiens, UniProt P05177).
T2 sequence (P05177 1-516): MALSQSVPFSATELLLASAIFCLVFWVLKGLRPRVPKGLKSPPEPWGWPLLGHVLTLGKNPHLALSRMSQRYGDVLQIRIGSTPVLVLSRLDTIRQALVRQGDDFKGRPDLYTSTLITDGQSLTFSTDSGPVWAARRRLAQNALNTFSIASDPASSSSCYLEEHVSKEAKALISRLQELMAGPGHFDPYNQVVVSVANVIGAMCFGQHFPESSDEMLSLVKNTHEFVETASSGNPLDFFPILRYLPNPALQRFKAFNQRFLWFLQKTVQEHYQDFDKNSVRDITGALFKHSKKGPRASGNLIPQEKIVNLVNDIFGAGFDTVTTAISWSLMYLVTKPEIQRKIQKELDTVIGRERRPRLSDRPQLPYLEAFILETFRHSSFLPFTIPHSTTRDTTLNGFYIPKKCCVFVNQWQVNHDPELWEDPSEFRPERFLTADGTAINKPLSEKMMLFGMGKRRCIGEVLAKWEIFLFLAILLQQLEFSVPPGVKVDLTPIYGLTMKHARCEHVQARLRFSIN
The data set can be described thus: Cytochrome P450 Inhibition (CYP panel). It is filed as in vitro ADME. The settings on record: probe phenacetin.

In data set [7] the target is T3, CYP1A (Phenacetin Substrate) (Homo sapiens, UniProt P05177).
T3 sequence (P05177 1-516): T2 sequence (P05177 1-516)
The experiment in a line: Cytochrome P450 Inhibition (CYP panel). It is filed as in vitro ADME. The note with it: read-out: IC50 (estimated).

Where [8] appears, read: human, human liver microsomes, read-out: % inhibition.
The mark [9] stands for this setting: CYP1A (phenacetin sub.), Human liver microsomes, read-out: % Inhibition of Control Values.

Read-outs that look alike come from different tables or passages of the source.

Chain of HDAC1 (h) (Q13547 whole entry): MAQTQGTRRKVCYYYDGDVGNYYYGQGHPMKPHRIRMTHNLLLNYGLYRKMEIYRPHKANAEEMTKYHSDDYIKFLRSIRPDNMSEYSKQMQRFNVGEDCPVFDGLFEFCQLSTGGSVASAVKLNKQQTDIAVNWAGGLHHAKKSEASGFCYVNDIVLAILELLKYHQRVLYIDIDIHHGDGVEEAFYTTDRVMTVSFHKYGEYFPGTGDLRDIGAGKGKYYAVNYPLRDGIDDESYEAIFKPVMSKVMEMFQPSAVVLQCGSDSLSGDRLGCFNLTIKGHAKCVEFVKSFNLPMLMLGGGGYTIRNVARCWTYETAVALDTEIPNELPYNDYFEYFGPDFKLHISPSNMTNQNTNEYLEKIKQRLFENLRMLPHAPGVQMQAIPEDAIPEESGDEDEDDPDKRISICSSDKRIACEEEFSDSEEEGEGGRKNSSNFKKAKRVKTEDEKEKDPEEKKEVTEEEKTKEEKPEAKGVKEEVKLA
Chain of PKBgamma/AKT3(h) (substrate histone H3 full length) (Q9Y243 whole entry): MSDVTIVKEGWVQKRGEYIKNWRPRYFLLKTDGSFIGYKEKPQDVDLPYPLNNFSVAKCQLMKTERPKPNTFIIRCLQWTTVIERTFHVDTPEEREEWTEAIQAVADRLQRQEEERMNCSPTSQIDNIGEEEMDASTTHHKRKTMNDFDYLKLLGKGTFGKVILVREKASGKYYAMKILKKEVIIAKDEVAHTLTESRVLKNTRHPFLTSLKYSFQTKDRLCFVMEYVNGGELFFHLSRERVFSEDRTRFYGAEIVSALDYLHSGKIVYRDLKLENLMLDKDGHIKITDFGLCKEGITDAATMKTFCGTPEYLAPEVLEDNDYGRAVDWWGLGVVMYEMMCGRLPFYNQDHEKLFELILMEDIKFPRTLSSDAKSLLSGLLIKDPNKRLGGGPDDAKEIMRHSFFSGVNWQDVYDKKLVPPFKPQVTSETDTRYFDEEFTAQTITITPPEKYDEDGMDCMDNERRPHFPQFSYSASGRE

For `CC(C)=CCC[C@H](CO)[C@@H]1CC[C@@H](C)c2c1cc(C)c(O)c2O` [Compound 1, 7,8,18-trihydroxyserrulat-14-ene], the inhibition at 10 µM in data set [1] is -2%; in data set [2], -111%; in data set [3] it was 2%; in data set [4], 5%; in data set [6] (setting [8]), 63 to 92%; in data set [6] (setting [9]), 92%. The “Resp Av %” value in data set [5] (Antagonist, Conc 0.001 μM) is −25%; in data set [5] (Antagonist, Conc 0.01 μM), −5%; in data set [5] (Antagonist, Conc 0.1 μM) it was 0%; in data set [5] (Antagonist, Conc 1 μM), 17%; in data set [5] (Antagonist, Conc 10 μM), 103%. Further, the IC50 in data set [5] (Homo sapiens, Antagonist) is 1.4 µM; in data set [5] (Homo sapiens, transcription response NF-κB) it was 1.36 µM; in data set [5] (transcription response NF-κB), 0.69 µM; in data set [7] it was under 10 µM. Moreover, the inhibition at 1 µM in data set [6] (setting [8]) and in data set [6] (setting [9]) was 28% throughout.

For the compound `CC(C)=CCC[C@H](C)[C@@H]1CC[C@@H](C)c2c1cc(C)c(O)c2O` [Compound 4, 7,8-dihydroxyserrulat-14-ene], in data set [6] (setting [8]), the inhibition at 10 µM lay in the range of 63 to 92%. Also, in data set [6] (setting [9]), the inhibition at 1 µM is 14% and the inhibition at 10 µM is 85%. In addition, the IC50 in data set [7] was under 10 µM.

In the case of `CC(C)=CCC[C@@H]1COc2c(C)cc(O)c3c2[C@H]1CC[C@H]3C` [Compound 3, 5,18-epoxy-8-hydroxyserrulat-14-ene], the inhibition at 10 µM is -1% in data set [1], 16% in data set [2], 11% in data set [3] and 3% in data set [4]. The “Resp Av %” value in data set [5] (Antagonist, Conc 0.001 μM) is −16%; in data set [5] (Antagonist, Conc 0.01 μM) it was −11%; in data set [5] (Antagonist, Conc 0.1 μM), −7%; in data set [5] (Antagonist, Conc 1 μM), 1%; in data set [5] (Antagonist, Conc 10 μM), −19%. The compound further showed a concentration for half-maximal inhibition (IC50) in data set [5] (Homo sapiens, Antagonist) of over 10 µM.

In the case of `CC(C)=CCC[C@@H]1C(O)Oc2c(C)cc(O)c3c2[C@H]1CC[C@H]3C` (some centres unmarked) [Compound 2, 5,18-epoxyserrulat-14-en-8,18-diol], the inhibition at 10 µM is -1% in data set [1]; -6% in data set [2]; 22% in data set [3]; -7% in data set [4]; 63 to 92% in data set [6] (setting [8]); 63% in data set [6] (setting [9]). Also, the “Resp Av %” value is −7% in data set [5] (Antagonist, Conc 0.001 μM); −7% in data set [5] (Antagonist, Conc 0.01 μM); −3% in data set [5] (Antagonist, Conc 0.1 μM); 10% in data set [5] (Antagonist, Conc 1 μM); 34% in data set [5] (Antagonist, Conc 10 μM). In addition, the IC50 was over 10 µM in data set [5] (Homo sapiens, Antagonist) and under 10 µM in data set [7]. The inhibition at 1 µM in data set [6] (setting [8]) and in data set [6] (setting [9]) was 38% in each case.

Consider `Nc1ncnc2c1ncn2[C@@H]1O[C@H](CSCC[C@H](N)C(=O)O)[C@@H](O)[C@H]1O` [SAH], for which the IC50 in data set [3] (read-out: Reference IC50) was found to be 0.97 µM.

As a reminder, the inhibition is the change of the read-out against control, counted positive when it falls. In general, IC50 refers to the concentration that inhibits the measured activity by half.
